# Source: US12516016B2, “GPX4 inhibitors, pharmaceutical compositions thereof, and their use for treating GPX4-mediated diseases” (EUBULUS BIOTHERAPEUTICS (HONG KONG) LIMITED, priority 2020, dated 2026)
# Experiments:
# Type in all cases: cell-based
# [1] = tested on: hepatocellular carcinoma cell line Hub-7; experiment: Cell proliferation assay (CELL-TITER GLO cell viability); conditions: 24 h, Hub-7 cells, 24 h incubation, read-out: Inhibition of Cell Proliferation EC50
# How it was run: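 […] cells (4,000/well) seeded overnight, then exposed 24 h to compound from 10 μM in 3-fold serial dilutions. Viability read by CELL-TITER GLO luminescence; EC50 values derived.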
# [2] = tested on: hepatocellular carcinoma cell line Hub-7; experiment: Anti-proliferation activity in the presence of a ferroptosis inhibitor
# Protocol: (§1) The activity of a test compound was determined in a cell proliferation assay using the hepatocellular carcinoma cell line […]. Cells (4,000 cells per well) were seeded in a 96-well tissue culture plate. After incubated overnight, a test compound was added at predetermined concentrations, starting with 10 μM and followed by 3-fold serial dilution. After the cells were incubated for 24 h, cell viability was determined using a CELL-TITER GLO® assay. The CELL-TITER GLO® reagent (50 μL) was added to each well and the luminescence was measured by a multimode microplate reader after a brief period of shaking. EC50 values were determined for the test compound. The results are summarized in Table 1, wherein A represents a value no greater than 100 nM, B represents a value greater than 100 nM but no greater than 500 nM, C represents a value greater than 500 nM but no greater than 2 μM, D represents a value greater than 2 μM but no greater than 10 μM; and E represents a value greater than 10 μM.
# (§2) The anti-proliferation activity of compound 80 was tested in the presence of an ferroptosis inhibitor, ferrostatin-1 (1 μM) or liproxstatin-1 (1 μM).
# [3] = tested on: hepatocellular carcinoma cell line; experiment: as above; conditions: in the presence of ferrostatin-1 (1 μM); read-out: Inhibition of Cell Proliferation EC50, Ferrostatin-1
# Protocol: as §1, §2
SMILES,EC50 [1] [nM],other results
"C#CC(=O)N(c1cccc(Cl)c1)C1(C(=O)NCc2ccccc2)CCOCC1 [A80, N-Benzyl-4-(N-(3-chlorophenyl)propiolamido)tetrahydro-2H-pyran-4-carboxamide]",≤ 100,"EC50 ([2]; in the presence of liproxstatin-1 (1 μM), read-out: Inhibition of Cell Proliferation EC50, Liproxstatin-1): > 10000 nM; EC50 ([2]; read-out: Inhibition of Cell Proliferation EC50, No Ferroptosis inhibitor): ≤ 100 nM; EC50 [3]: > 10000 nM"
"C#CC(=O)N(c1ccccc1N1CCOCC1)C1(C(=O)NCc2ccccc2)CCOCC1 [A139, N-Benzyl-4-(N-(2-morpholinophenyl)propiolamido)tetrahydro-2H-pyran-4-carboxamide]",≤ 100,–
"C#CC(=O)N(c1cccc(Cl)c1)C1(C(=O)NCc2ccccc2)CCC(F)(F)CC1 [A103, N-Benzyl-1-(N-(3-chlorophenyl)propiolamido)-4,4-difluorocyclohexane-carboxamide]",≤ 100,–
"COc1ccc(N(C(=O)CCl)C(C(=O)NCCc2ccccc2)c2ccc(N)cc2)cc1Cl (centres unmarked) [C3, 2-(4-aminophenyl)-2-(2-chloro-N-(3-chloro-4-methoxyphenyl)acetamido)-N-phenethylacetamide]",100 to 500,–
"C#CC(=O)N(c1cccc(Cl)c1F)C(C(=O)NCc1ccccc1)c1cccc(N)c1 (centres unmarked) [A41, N-(1-(3-Aminophenyl)-2-(benzylamino)-2-oxoethyl)-N-(3-chloro-2-fluoro-phenyl)propiolamide]",≤ 100,–
"C#CC(=O)N(c1cccc2c1CCC2=O)C(C(=O)NCc1ccccc1)c1ccccc1 (centres unmarked) [A89, N-(2-(Benzylamino)-2-oxo-1-phenylethyl)-N-(1-oxo-2,3-dihydro-1H-inden-4-yl)propiolamide]",≤ 100,–
"C#CC(=O)N(c1cccc(Cl)c1)C(C(=O)NCc1ccccc1)c1ccccc1 (centres unmarked) [A74, N-(2-(Benzylamino)-2-oxo-1-phenylethyl)-N-(3-chlorophenyl)propiolamide]",≤ 100,–
"Cn1ncc2cc(N(C(=O)CCl)C3(C(=O)NCCc4ccccc4)CCOCC3)ccc21 [C22, 4-(2-Chloro-N-(1-methyl-1H-indazol-5-yl)acetamido)-N-phenethyltetrahydro-2H-pyran-4-carboxamide]",500 to 2000,–
